Several values for one entry are separate records, joined by “and”; a condition that tells them apart may be missing. Identical values can stand only once.
Experiments:
Type in all cases: cell-based
[1] = tested on: RFP-GFP-hTauP301L pre-formed inclusion bodies; assay: ICC of mRFP-GFP-hTauP301L inclusion bodies (puncta, GFP/RFP ratio) in HeLa cells; details: Fig. S6i, PBA-1105 given with O.A.
Procedure: Cells were cultured on coverslips coated with poly-L-lysine (Sigma) to observe cellular localization of proteins. Using 4% paraformaldehyde in PBS (pH 7.4), the cells were fixed for 15 min at room temperature and washed three times for 5 min with PBS. After fixing, the cells were permeabilized with 0.5% Triton X-100 in PBS solution for 15 min and washed three times with PBS for 5 min. The cells were blocked containing 2% BSA in PBS solution for 1 h at room temperature. Subsequently, the cells were incubated with primary antibody diluted in 2% BSA/PBS solution overnight at 4 °C, followed by washing the cells three times for 10 min with PBS and incubated with Alexa Fluor-conjugated secondary antibody diluted in 2% BSA/PBS for 30 min at room temperature. Using a DAPI-containing mounting medium (Vector Laboratories), the coverslips were mounted on glass slides. Confocal images were taken by laser scanning confocal microscope 510 Meta (Zeiss) and analyzed by Zeiss LSM Image Browser (ver. 4.2.0.121). […] Quantification results are shown as mean ± S.D. or S.E.M. of three independent experiments […]
Supplementary Fig. 6. […]
(0.1 μM, 24 h). (h) ICC in HeLa cells transiently expressing mRFP-GFP-hTauP301L and treated with okadaic acid (15 nM, 24 h) prior to the presence or absence of PBA-1105 (100 nM, […]
24 h). Scale bar, 10 µm. (i) Quantification of h for punctate formation and GFP/RFP ratio (n=3 biologically independent experiments each counting 50 cells and 10 puncta within one image).
Data are presented as mean values ± SD for aggregate formation and as mean values ± SEM […]
for GFP/RFP ratio. […]
(1 µM, 24 h) or negative control. P-values (from a two-sided unpaired t-test): **P < 0.00662 (for tau aggregate formation), **P < 0.00779 (for GFP/RFP ratio). Source data are provided

[2] = tested on: Ub-conjugated aggregates; assay: WB autophagic flux of Ub-conjugated aggregates in HEK293T cells under proteasomal inhibition
Procedure: Fig. 4 Targeted autophagic delivery and degradation of misfolded protein cargoes using AUTOTACs with aggregate-binding warhead. a A model illustrating the mode of action of aggregate-targeting AUTOTAC. b Chemical structures of PBA-1105, PBA-1106, Anle138b-F105 and PBA-1105b. c In vitro p62 oligomerization assay in HEK293T cells incubated with the indicated compounds in (b). d WB in HEK293T cells treated with MG132 (1 μM, 24 h), HCQ (10 μM, 24 h), PBA-1105, YTK-1105, and PBA (1 μM, 24 h). e Identical to (d), but with Anle-F105. f ICC of HeLa cells treated with HCQ (10 μM, 24 h), MG132 (2 μM, 18 h) or both in the presence of PBA-1106, YOK-1106 or PBA (1 μM, 24 h). Scale bar, 10 μm. g Quantification of (f) (n = 3, 50 cells). h ICC of HeLa cells treated with Anle138b-F105 (1 μM, 24 h). Scale bar, 10 μm. i Quantification of (h) (n = 3, 50 cells). When indicated, n = 3 biologically independent experiments each counting 50 cells. Data are presented as mean values ± SD where relevant. P-values (from a two-sided unpaired t test): ***P < 7.66E−05. Source data are provided with this paper.
Adherent cells were washed with phosphate-buffered saline (PBS) and cell pellets were lysed in SDS-based sample buffer (277.8 mM Tris-HCI, pH 6.8, 4.4% LDS, 44.4% (v/v) glycerol) containing beta-mercaptoethanol. […] Densitometry of developed bands was measured and analyzed with ImageJ (NIH, Bethesda).

[3] = tested on: p62^+ERβ^+ puncta; assay: ICC of ERβ puncta co-localization in ACHN cells; details: 24 h; for ERβ-LC3 colocalization, cells of 50 cells counted: single experiments
Procedure: (§1) Cells were cultured on coverslips coated with poly-L-lysine (Sigma) to observe cellular localization of proteins. Using 4% paraformaldehyde in PBS (pH 7.4), the cells were fixed for 15 min at room temperature and washed three times for 5 min with PBS. After fixing, the cells were permeabilized with 0.5% Triton X-100 in PBS solution for 15 min and washed three times with PBS for 5 min. The cells were blocked containing 2% BSA in PBS solution for 1 h at room temperature. Subsequently, the cells were incubated with primary antibody diluted in 2% BSA/PBS solution overnight at 4 °C, followed by washing the cells three times for 10 min with PBS and incubated with Alexa Fluor-conjugated secondary antibody diluted in 2% BSA/PBS for 30 min at room temperature. Using a DAPI-containing mounting medium (Vector Laboratories), the coverslips were mounted on glass slides. Confocal images were taken by laser scanning confocal microscope 510 Meta (Zeiss) and analyzed by Zeiss LSM Image Browser (ver. 4.2.0.121). […] Quantification results are shown as mean ± S.D. or S.E.M. of three independent experiments

[4] = tested on: AR^+LC3^+ autophagic membranes; assay: ICC of AR-LC3 co-localization in LNCaP cells; details: 2.5 µM, 24 h
Procedure: as §1

SMILES: O=C(CCCc1ccccc1)NCCOCCOCCOCCNCc1ccc(OCc2ccccc2)c(OCc2ccccc2)c1 [PBA-1105]
- AVG GFP/RFP ratio per puncta, total AVG ([1]; con 1.00467): 0.4057
- AVG GFP/RFP ratio per puncta, relative % AVG ([1]; con 100): 40.3782%
- AVG GFP/RFP ratio per puncta, AVG per experiment ([1]; n=1 to n=3): 0.551 and 0.37 and 0.296
- puncta formation of cells with AVG RFP/GFP ratio < 0.5, AVG of cells per 50 cells ([1]; RFP-GFP-TauP301L, con 4.33333): 30.3333
- puncta formation of cells with AVG RFP/GFP ratio < 0.5, percentage AVG ([1]; RFP-GFP-TauP301L, con 8.66667): 60.6667
- puncta formation of cells with AVG RFP/GFP ratio < 0.5, cells counted per 50 cells ([1]; RFP-GFP-TauP301L, single experiments): 33 and 37 and 21
- autophagic flux index of Ub-conjugated aggregates ([2]; 1 μM 24 h, MG132 1 μM, HCQ 10 μM, control index 1): 2.2
- duration of sustained autophagic flux of Ub-conjugated aggregates ([2]; 1 μM, MG132): at least 48 h

SMILES: O[C@H](CNCCOCCOCCOc1ccc(-c2c(-c3ccccc3)nn3c(C(F)(F)F)cc(C(F)(F)F)nc23)cc1)COc1ccc(OCc2ccccc2)c(OCCCc2ccccc2)c1 [PHTPP-1304]
- ERβ-LC3 colocalization, AVG of cells of 50 ([3]; 0.5uM): 5.667
- ERβ-LC3 colocalization, percentage AVG ([3]; 0.5uM): 11.3333%
- ERβ-LC3 colocalization, AVG of cells of 50 ([3]; 2.5uM): 12.6667
- ERβ-LC3 colocalization, percentage AVG ([3]; 2.5uM): 25.3333%
- ERβ-LC3 colocalization, AVG of cells of 50 ([3]; 10uM + HCQ): 39
- ERβ-LC3 colocalization, percentage AVG ([3]; 10uM + HCQ): 78%
- ERβ-LC3 colocalization, cells of 50 cells counted ([3]; 10uM + HCQ): 34 and 42 and 41
- ERβ-LC3 colocalization, AVG of cells of 50 ([3]; 10uM): 29
- ERβ-LC3 colocalization, percentage AVG ([3]; 10uM): 58%
- ERβ-LC3 colocalization, cells of 50 cells counted ([3]; 10uM): 24 and 34 and 29

SMILES: C=CC(C)(O)C(=O)N(C(=O)NCCOCCOCCNCC(O)COc1ccc(OCCc2ccccc2)c(OCCc2ccccc2)c1)c1cc(Cl)cc(Cl)c1 (stereo not drawn) [VinclozolinM2-2204]
- AR-LC3 colocalization, AVG of cells of 50 [4]: 40
- AR-LC3 colocalization, percentage AVG [4]: 80%
- AR-LC3 colocalization, cells of 50 cells counted ([4]; single experiments, listed as Vinclo.-2204): 41 and 36 and 43
